# Measurements published in US9604932B2 (priority 2013, dated 2017).
# Columns and labels:
# [1] = Incubation of R-107 in rat plasma, relative concentrations by HPLC; format: in vitro ADME; settings: R-107 4 mM in rat plasma, 37° C.
# Description: In an in vitro study, 2,2,5,5-tetramethyl-3-(nitrooxymethyl)pyrrolidin-1-yl acetate (R-107) was incubated in mouse or rat plasma at 37° C. at a concentration of 4 mM, and the relative concentrations of this compound as well as of its corresponding hydroxylamine, (1-hydroxy-2,2,5,5-tetramethylpyrrolidin-3-yl) methyl nitrate (R-105), and 3-nitratomethyl-2,2,5,5-tetramethylpyrrolidinyloxy (R-100), were measured by HPLC.
# [2] = Plasma pharmacokinetics in pig (release of R-100 from R-107), LCMS; format: in vivo; settings: for concentration at 0.08 h: 0.08 hrs post dose; for concentration at 0.17 h: 0.17 hrs post dose; for concentration at 0.25 h: 0.25 hrs post dose; for concentration at 0.5 h: 0.5 hrs post dose; for concentration at 1 h: 1 hrs post dose; for concentration at -0.08 h: −0.08 hrs post dose
# Description: In the following two experiments, the pharmacokinetic of releasing R-100 from R-107, via R-105 that is the reduced form of R-100, was studied in vivo according to the protocol described herein.
# 100 μl aliquots plasma obtained from R-107-treated sheep or pig were thawed and 200 μl ice-cold ethanol was added to each 100 μl sample to precipitate protein. Samples were then vortexed, placed on ice for 10 minutes, and then spun down at room temperature for 15 minutes. A first 100 μl supernatant from each spun sample was withdrawn and placed in a labeled HPLC micro vial to which 300 μl MPA (LC mobile phase A) was added, and the vial contents were then mixed and submitted for LCMS analysis (kept at 4° C.). The concentration of R-107 was measured in this sample as was the concentration of R105. A second 100 μl supernatant from each spun sample was added to a labelled HPLC micro vial to which 300 μl MPA and 2 μl of Reducing solution (ascorbic acid, 1.0 mg/ml in water) were added. These vials were vortexed; incubated at 50° C. for 1 hour with gentle shaking; and were then cooled to 4° C. and submitted for LCMS analysis. This sample was analyzed for R105, i.e., reduced form of R-100, and the amount measured thus represents the sum of R-100 and R-105 originally present in the plasma. The concentration of R-100 can be calculated from that of the R-105 in the second sample minus that of R-105 in the first sample. However, the concentrations of R-105 were seen to be low (approximately 10% or less of those of R-100) and so the results reported below as R-100 are not corrected for R-105.
# Sets of standards (R-100, R-105 and R-107) were prepared by spiking individually in pig plasma. 100 μl aliquots of these spiked plasma samples, after thawing, were included in the above extraction protocol.
# Analysis method were carried out with an Agilent HPLC stack, with column eluate directed, via a diverter valve, into the source of an AB Sciex ‘Qstar Elite’ Hybrid TOF, high-resolution mass spectrometer. LC column: Phenomenex Kinetex C18 2.6u 100A, 2.1×50 mm. LC mobile phase A: H2O with 0.02% trifluoroacetic acid (TFA), 0.1% formic acid (HOF); Phase B: acetonitrile (ACN) with 0.02% TFA, 0.1% HOF. Mobile phase flow rate=500 μl/min. Injection size: 8 μl, via Agilent 1100 u-WPS autosampler.
# [3] = tested on: Pseudomonas aeruginosa (PSA)-induced septic pneumonia; test: Sheep model of septic pneumonia; format: in vivo, Merino sheep; settings: protocol only; total 80 mg/kg BID IV
# Source text: In this study, a model of sheep suffering from Pseudomonas aeruginosa (PSA)-induced septic pneumonia and consequent pulmonary dysfunction is used. Female Merino sheep are operatively instrumented for chronic study with Swan-Ganz®, i.e., pulmonary artery, and femoral artery catheters, and are randomly allocated to vehicle control or R-107 treatment group. Smoke inhalation injury (48 breaths of cotton smoke) is induced and 2.4×10^11 colony-forming units (CFU) of PSA are instilled in the lung via bronchoscope under general anesthesia. The animal in the treatment group are intravenously (IV) administered with a total of 80 mg/kg of R-107 BID. Ringer's lactate solution is titrated IV to maintain hematocrit (hct) at baseline±3%. Measurements are taken at baseline and every 3 hours during the 24 hours study period. Data are expressed as mean±SEM. Statistical analysis: two-way ANOVA and Bonferroni post hoc comparison. A p-value <0.05 is considered as statistically significant.
# [4] = tested on: renal ischemia-reperfusion injury; test: Rat model of renal ischemia-reperfusion injury; format: in vivo, Sprague-Dawley rats; settings: protocol only; 80 mg/kg IV infusion
# [5] = tested on: myocardial ischemia-reperfusion injury; test: Rat model of myocardial ischemia-reperfusion injury; format: in vivo, Sprague-Dawley rats; settings: protocol only; 10, 30, 80 mg/kg IV
# Description: In order to test the efficacy of R-107 in a myocardial ischemia reperfusion injury, male aged Sprague-Dawley rats are dosed with R-107 (0, 10, 30, 80 mg/kg IV) 10 minutes prior to the end of a 30 minutes period of ischemia produced by occlusion of the left anterior descending (LAD) coronary artery. Cardiac function is monitored by a Millar catheter for the determination of heart rate (HR), systolic and diastolic blood pressure (BP), left ventricular (LV) systolic BP, LV end-diastolic BP (LVEDP), ±dP/dt, pressure-volume (PV) loop, and tau (τ). 3 hours post-ischemia, blood and myocardium are analyzed for morphologic, histochemical, and bioanalytical injury. The area of necrosis, as a % of area at risk (AAR), and the extent of the no-reflow zone are quantified.
# [6] = tested on: erectile dysfunction (ED); test: Rat model of erectile dysfunction; format: in vivo, Sprague-Dawley rats; settings: protocol only; 80 mg/kg/day BID IV
# [7] = IV R-107 diluted in 4 parts of PEG400, 18 mg/kg over 6 minutes, 24 hrs post dose
# [8] = capsule per os of neat R-107 88 mg/kg, 24 hrs post dose
# [9] = plasma, IV R-107 diluted in 4 parts of PEG400, 18 mg/kg over 6 minutes
# [10] = plasma, IV neat R-107 88 mg/kg over 6 minutes
# [11] = plasma, oral, capsule per os of neat R-107 88 mg/kg
smiles,measurement,setting,value
"CC(=O)ON1C(C)(C)CC(CO[N+](=O)[O-])C1(C)C (stereo not shown) [R-107, 2,2,5,5-tetramethyl-3-(nitrooxymethyl)pyrrolidin-1-yl acetate]",Relative concentration of R-107,[1]; 0.1 hrs,246
same,Relative concentration of R-107,[1]; 1.5 hrs,18
same,Relative concentration of R-107,[1]; 20 hrs,0
same,R-107 in plasma,"[2]; IV R-107 diluted in 4 parts of PEG400, 18 mg/kg over 6 minutes, 2 hrs post dose",not detected
same,R-107 in plasma,"[2]; IV R-107 diluted in 4 parts of PEG400, 18 mg/kg over 6 minutes, 4 hrs post dose",not detected
same,R-107 in plasma,"[2]; IV R-107 diluted in 4 parts of PEG400, 18 mg/kg over 6 minutes, 8 hrs post dose",not detected
same,R-100 in plasma,[2]; [7],not detected
same,R-107 in plasma,[2]; [7],not detected
same,R-107 in plasma,"[2]; IV neat R-107 88 mg/kg over 6 minutes, 6 hrs post dose",not detected
same,R-107 in plasma,"[2]; IV neat R-107 88 mg/kg over 6 minutes, 24 hrs post dose",not detected
same,R-107 in plasma,"[2]; capsule per os of neat R-107 88 mg/kg, 8 hrs post dose",not detected
same,R-100 in plasma,[2]; [8],not detected
same,R-107 in plasma,[2]; [8],not detected
same,concentration at 0.08 h,[2]; [9],2380 ng/mL
same,concentration at 0.17 h,[2]; [9],640 ng/mL
same,concentration at 0.25 h,[2]; [9],430 ng/mL
same,concentration at 0.5 h,[2]; [9],250 ng/mL
same,concentration at 1 h,[2]; [9],220 ng/mL
same,concentration at -0.08 h,[2]; [9],0 ng/mL
same,concentration at 0.08 h,[2]; [10],5240 ng/mL
same,concentration at 0.17 h,[2]; [10],5870 ng/mL
same,concentration at 0.25 h,[2]; [10],3430 ng/mL
same,concentration at 0.5 h,[2]; [10],1320 ng/mL
same,concentration at 1 h,[2]; [10],360 ng/mL
same,concentration at 2 h,"[2]; plasma, IV neat R-107 88 mg/kg over 6 minutes, 2 hrs post dose",260 ng/mL
same,concentration at -0.08 h,[2]; [10],0 ng/mL
same,concentration at 0.08 h,[2]; [11],1.32 ng/mL
same,concentration at 0.17 h,[2]; [11],0.715 ng/mL
same,concentration at 0.5 h,[2]; [11],0.345 ng/mL
same,concentration at 1 h,[2]; [11],0.11 ng/mL
same,concentration at 2 h,"[2]; plasma, oral, capsule per os of neat R-107 88 mg/kg, 2 hrs post dose",0.222 ng/mL
same,concentration at 3 h,"[2]; plasma, oral, capsule per os of neat R-107 88 mg/kg, 3 hrs post dose",0.11 ng/mL
same,concentration at 4 h,"[2]; plasma, oral, capsule per os of neat R-107 88 mg/kg, 4 hrs post dose",0.122 ng/mL
same,Efficacy in sheep model of septic pneumonia,[3],Effective
same,Efficacy in rat model of renal ischemia-reperfusion injury,[4],Effective
same,Efficacy in rat model of myocardial ischemia-reperfusion injury,[5],Effective
same,Efficacy in rat model of erectile dysfunction,[6],Effective
